# Data: patent US11229592B2, “Method for hair volume reduction” (Conopco, Inc., priority 2017, dated 2022)
# Key:
# [1] = Long lasting and durable volume reduction of treated hair switches after subsequent washing; conditions: switches from Example 1 subsequently washed, images captured; compared to control
# Description: (§1) Dark brown European wavy hair switches of length 25 cm and weight 2 gms, were treated as follows:
# (§2) At the end of the soaking period, the switches were left to dry at 20° C. and 50% RH. When dried, the switches were straightened with 5 passes of FHI irons (FHI Brands, 29003 Avenue Sherman Valencia, Calif. 91355 USA). The switches were then placed in a humidity chamber ˜30 C/80% RH for 1 hour and images were captured and analyzed.
# The switches from the above example were subsequently washed and the images were captured. […] The corresponding benefits for glycine was only −10%.
# [2] = Shape and frizz control (volume) of straightened hair switches after high humidity, image analysis; conditions: After 1 hour at high humidity (30 C./80% RH), switches soaked 30 minutes in 1% aqueous solution, dried, compared to water control
# Description: as §1
# Control: After initial washing, soaked for 30 minutes in water
# Comparative Example A: After initial washing, soaked for 30 minutes in aqueous solution of 1% glycine
# Example 1: soaked for 30 minutes in aqueous solution of 1% N-formyl glycine
# as §2
Structure (SMILES),benefit over control (volume reduction) [1] [%],% shape and frizz control benefit against control [2] [%]
"O=CNCC(=O)O [Example 1, N-formyl glycine]",32,30
"NCC(=O)O [Comparative Example A, glycine]",−10,−6
